# From US11192921B2 (priority 2017, dated 2021)
# Where “and” joins values, the source holds several entries; their conditions need not be identical. Equal values may be shown once. Read-outs that look alike come from different tables or passages of the source. Marks after values point to notes of the source that are not given here. No end group written: not given here.
# Experiments:
# Female Kunming mice [1] = assay type: in vivo
# Kunming mice [2] = conditions: mouse, in vivo
# Female Kunming mice [3] = system: Female Kunming mice
# male BALB/c mice [4] = assay: cancer-induced pain (CIP) model, gross behavior; assay type: in vivo; conditions: 14th day after inoculation
# Experimental: (§1) BALB/c mice were taken, and the right sciatic nerve was exposed; ascites containing 5×10^4 Meth A sarcoma cells were injected into the proximal nerve near the sciatic nerve trochanter far from the tendon branch of the posterior biceps, the wound was closed, and the same volume of normal saline was injected into the left side by performing a sham operation.
# On the 4th, 7th, 10th and 14th days after inoculation, spontaneous pain and foot drop and the like occurred before the occurrence of thermal sensitivity and mechanical pain sensitivity behaviors, […]
# male BALB/c mice [5] = assay: cancer-induced pain (CIP) model, thermosensitive test; assay type: in vivo; conditions: heat radiation stimulation
# Experimental: Influence of Analgesic Polypeptides on Neuralgia in a Cancer-Induced Pain (CIP) Model
# A number of male BALB/c mice each weighing 25-30 g were used.
# Von Fery monofilament; a microsyringe, 5 mg/mL solutions of polypeptides I, II and II I; normal saline.
# as §1
# 1.3.1 Thermosensitive Test
# On the 4th, 7th, 10th and 14th days after inoculation, the latency of foot lifting caused by heat radiation stimulation to animals was observed, and the heat radiation intensity was adjusted to cause the latency of foot lifting of normal mice to be (10±2) s.
# All data was expressed as M±SD and subjected to one-way ANOVA.
# Kunming mice [6] = assay type: in vivo
# Female Kunming mice [7] = system: Female Kunming mice; remark: listed apart in the source
# Female Kunming mice [8] = system: Female Kunming mice; remark: listed apart in the source
# SD rats = assay: pain threshold of trigeminal nerve (trigeminal neuralgia model); assay type: in vivo; conditions: for highest pain threshold on the operative side / pain threshold on the opposite side: 3 h after injection; for Pain threshold: intraperitoneal
# [9] = 50 μg/kg, injected subcutaneously
# [10] = 100 μg/kg, injected subcutaneously
sequence,measurement,setting,value
GSCSTPPSAVLYC (cysteine pairing not given here) [Polypeptide II],Pain threshold,Female Kunming mice [1]; 0 min,27.43 ± 0.54^∧ s
same,Pain threshold,"Female Kunming mice [1]; mouse, in vivo, ip",42.54 ± 0.24^∧ s and 22.33 ± 0.36 s and 27.45 ± 0.52 s and 31.34 ± 0.45*^∧ s and 25.43 ± 0.54^∧ s and 26.24 ± 0.42 s
same,heat thresholds of mice compared with the normal saline negative control group,"Female Kunming mice [1]; mouse, in vivo, ip",effectively increase the heat thresholds of mice
same,increase of the pain threshold compared with the normal saline group and the conotoxin group,"Female Kunming mice [1]; mouse, in vivo, ip",significantly higher
same,analgesic effects in formalin-induced pain experiments,Kunming mice [2],good analgesic effects
same,"cumulative foot licking time, Phase I",Kunming mice [2],48.20 ± 11.31*^
same,"cumulative foot licking time, Phase II",Kunming mice [2],40.53 ± 14.32
same,Movement distances of mice in open field tests,Female Kunming mice [3]; 1 h,19.47 ± 1.32^
same,Movement distances of mice in the center area in open field tests,Female Kunming mice [3]; 1 h,19.47 ± 1.32^
same,Movement distances of mice in the peripheral area in open field tests,Female Kunming mice [3]; 1 h,19.47 ± 1.32^
same,Number of entrances to the center area in open field tests,Female Kunming mice [3]; 1 h,19.47 ± 1.32^
same,Number of entrances to the peripheral area in open field tests,Female Kunming mice [3]; 1 h,19.47 ± 1.32^
same,Residence time in the center area in open field tests,Female Kunming mice [3]; 1 h,19.47 ± 1.32^ s
same,Residence time in the peripheral area in open field tests,Female Kunming mice [3]; 1 h,19.47 ± 1.32^ s
same,Movement distances of mice in open field tests,Female Kunming mice [3]; 24 h,19.03 ± 2.48 m
same,Movement distances of mice in the center area in open field tests,Female Kunming mice [3]; 24 h,19.03 ± 2.48 m
same,Movement distances of mice in the peripheral area in open field tests,Female Kunming mice [3]; 24 h,19.03 ± 2.48 m
same,Number of entrances to the center area in open field tests,Female Kunming mice [3]; 24 h,19.03 ± 2.48
same,Number of entrances to the peripheral area in open field tests,Female Kunming mice [3]; 24 h,19.03 ± 2.48
same,Residence time in the center area in open field tests,Female Kunming mice [3]; 24 h,19.03 ± 2.48 s
same,Residence time in the peripheral area in open field tests,Female Kunming mice [3]; 24 h,19.03 ± 2.48 s
same,Movement distances of mice in open field tests,Female Kunming mice [3]; Time 0,20.98 ± 1.28 m
same,Movement distances of mice in the center area in open field tests,Female Kunming mice [3]; Time 0,20.98 ±1.28 m
same,Movement distances of mice in the peripheral area in open field tests,Female Kunming mice [3]; Time 0,20.98 ± 1.28 m
same,Number of entrances to the center area in open field tests,Female Kunming mice [3]; Time 0,20.98 ± 1.28
same,Number of entrances to the peripheral area in open field tests,Female Kunming mice [3]; Time 0,20.98 ± 1.28
same,Residence time in the center area in open field tests,Female Kunming mice [3]; Time 0,20.98 ± 1.28 s
same,Residence time in the peripheral area in open field tests,Female Kunming mice [3]; Time 0,20.98 ± 1.28 s
same,side effects compared with conotoxin (open field),"Female Kunming mice [3]; mouse, in vivo, ip",lower side effects
same,various indexes in open field experiments compared with the normal saline group,"Female Kunming mice [3]; mouse, in vivo, ip",no significant difference
same,left foot lifting behavior,male BALB/c mice [4],obviously observed
same,Latency of foot lifting before administration,male BALB/c mice [5]; before administration,10.12 ± 1.64
same,Latency (D) of foot lifting after administration,male BALB/c mice [5]; day 4,9.87 ± 0.78
same,Latency (D) of foot lifting after administration,male BALB/c mice [5]; day 7,8.75 ± 0.89
same,Latency (D) of foot lifting after administration,male BALB/c mice [5]; day 10,8.31 ± 0.92
same,Latency (D) of foot lifting after administration,male BALB/c mice [5]; day 14,6.56 ± 0.56
same,Pain threshold (tail flick),Kunming mice [6]; 0 min,2.43 ± 0.21^∧ s
same,Pain threshold (tail flick),Kunming mice [6]; 15 min,2.52 ± 0.24 s
same,Pain threshold (tail flick),Kunming mice [6]; 30 min,2.31 ± 0.36 s
same,Pain threshold (tail flick),Kunming mice [6]; 45 min,2.45 ± 0.12 s
same,Pain threshold (tail flick),Kunming mice [6]; 60 min,2.12 ± 0.41 s
same,Pain threshold (tail flick),Kunming mice [6]; 75 min,2.23 ± 0.14^∧ s
same,Pain threshold (tail flick),Kunming mice [6]; 90 min,2.24 ± 0.12 s
same,Duration of the immobility of mice in tail suspension tests,Female Kunming mice [7]; 1 h,19.47 ± 1.32^ s
same,Duration of the immobility of mice in tail suspension tests,Female Kunming mice [7]; 24 h,19.03 ± 2.48 s
same,Duration of the immobility of mice in tail suspension tests,Female Kunming mice [7]; Time 0,20.98 ± 1.28 s
same,data of tail suspension test compared with the normal saline group,"Female Kunming mice [7]; mouse, in vivo, ip",no significant difference
same,toxic side effects compared with the conotoxin (tail suspension),"Female Kunming mice [7]; mouse, in vivo, ip",lower toxic side effects
same,Movement duration of mice in forced swimming tests,Female Kunming mice [8]; 1 h,19.47 ± 1.32^ s
same,Movement duration of mice in forced swimming tests,Female Kunming mice [8]; 24 h,19.03 ± 2.48 s
same,Movement duration of mice in forced swimming tests,Female Kunming mice [8]; Time 0,20.98 ± 1.28 s
same,toxic side effects compared with the conotoxin (forced swimming),"Female Kunming mice [8]; mouse, in vivo, ip",lower toxic side effects
same,animal reaction thresholds,"SD rats; 50 μg/kg and 100 μg/kg, injected subcutaneously",significantly increased
same,time the pain thresholds lasted,SD rats; [9],1 h
same,highest pain threshold on the operative side,SD rats; [9],2.3 ± 0.5 g
same,pain threshold on the opposite side,SD rats; [9],1.2 ± 0.2 g
same,time the effect on the operative side lasted,SD rats; [10],about 8 h
same,highest pain threshold on the operative side,SD rats; [10],7.4 ± 0.9 g
same,pain threshold on the opposite side,SD rats; [10],3.2 ± 1.3 g
same,pain threshold change,"SD rats; 300 μg/kg, subcutaneously",not significantly increased
same,Pain threshold,"SD rats; Dose 50 (μg/kg), 0 h",25.56 ± 0.65 s
same,Pain threshold,"SD rats; Dose 50 (μg/kg), 1 h",25.23 ± 0.44 s
same,Pain threshold,"SD rats; Dose 50 (μg/kg), 2 h",26.62 ± 0.56 s
same,Pain threshold,"SD rats; Dose 50 (μg/kg), 3 h",26.46 ± 0.62 s
same,Pain threshold,"SD rats; Dose 50 (μg/kg), 4 h",27.15 ± 0.56 s
same,Pain threshold,"SD rats; Dose 50 (μg/kg), 5 h",26.62 ± 0.13 s
same,Pain threshold,"SD rats; Dose 100 (μg/kg), 0 h",25.87 ± 0.23 s
same,Pain threshold,"SD rats; Dose 100 (μg/kg), 1 h",26.12 ± 0.62 s
same,Pain threshold,"SD rats; Dose 100 (μg/kg), 2 h",27.16 ± 0.32 s
same,Pain threshold,"SD rats; Dose 100 (μg/kg), 3 h",27.65 ± 0.32 s
same,Pain threshold,"SD rats; Dose 100 (μg/kg), 4 h",26.23 ± 0.62 s
same,Pain threshold,"SD rats; Dose 100 (μg/kg), 5 h",25.13 ± 0.32 s
same,Pain threshold,"SD rats; Dose 300 (μg/kg), 0 h",26.41 ± 0.66 s
same,Pain threshold,"SD rats; Dose 300 (μg/kg), 1 h",30.12 ± 0.56 s
same,Pain threshold,"SD rats; Dose 300 (μg/kg), 2 h",30.61 ± 0.62 s
same,Pain threshold,"SD rats; Dose 300 (μg/kg), 3 h",29.52 ± 0.95 s
same,Pain threshold,"SD rats; Dose 300 (μg/kg), 4 h",28.62 ± 0.61 s
same,Pain threshold,"SD rats; Dose 300 (μg/kg), 5 h",27.92 ± 0.61 s
